Results taken from ChEMBL document CHEMBL1135272 (Bioorg Med Chem Lett, 2002).

Tests used:
[1] = system: A549; test: Inhibition of NFkB (transcription factor) activation in A549 human lung carcinoma cell line; assay type: functional, cell-based
[2] = system: A549; test: Compound was tested for its ability to inhibit tumor necrosis factor alpha (TNF alpha) induced apoptosis in A549 human lung carcinoma cell line; NA=Not assayed; assay type: functional, cell-based
[3] = system: A549; test: The compound was examined for its ability to block tumor necrosis factor alpha (TNF alpha) induced IL-8 production in A549 human lung carcinoma cell line using an ELISA; assay type: functional, cell-based
[4] = system: A549; test: (§1) Compound was tested for its ability to inhibit tumor necrosis factor alpha (TNF alpha) induced apoptosis in A549 human lung carcinoma cell line at 20 uM concentration; assay type: functional, cell-based
[5] = system: A549; test: as §1; assay type: functional
[6] = system: A549; test: Inhibition of NFkB (transcription factor) activation in A549 human lung carcinoma cell line at 20 uM; assay type: functional
[7] = system: A549; test: Compound was tested for its ability to inhibit tumor necrosis factor alpha (TNF alpha) induced apoptosis in A549 human lung carcinoma cell line; assay type: functional, cell-based
[8] = system: A549; test: The compound was tested for its ability to inhibit tumor necrosis factor alpha (TNF alpha) induced apoptosis in A549 human lung carcinoma cell line; assay type: functional, cell-based

Row | SMILES | IC50 [1] [µM] | inhibition at 20 µM [5] [%] | inhibition at 20 µM [6] [%] | other results
1 | CCCOC(=O)C1C2C(=O)CC(c3ccc(O)cc32)C1C(=O)OCCC[Si](C)(C)C (centres undefined) | 40 |  |  | IC50 [2]: Not Active
2 | CCCOC(=O)C1C2C(=O)CC(c3ccc(O)cc32)C1C(=O)OCC[Si](C)(C)C (centres undefined) | 15 |  |  | IC50 [3]: 14 µM; IC50 [4]: 3 µM
3 | CCCOC(=O)C1C2C(=O)CC(c3ccc(OCc4ccccn4)cc32)C1C(=O)OCC[Si](C)(C)C (centres undefined) |  | 47 | 31 | 
4 | CCCOC(=O)C1C2C(=O)CC(c3ccc(O)cc32)C1C(=O)OCCC(C)(C)C (centres undefined) | 41 |  |  | IC50 [2]: Not Active
5 | C=CCNC(=O)C1C2C(=O)CC(c3ccc(O)cc32)C1C(=O)OCC[Si](C)(C)C (centres undefined) |  | 18 | 19 | 
6 | C[Si](C)(C)CCOC(=O)C1C2CC(=O)C(c3cc(O)ccc32)C1NC(=O)OCc1ccc(-c2ccccc2)cc1 (centres undefined) |  | 0 | 27 | 
7 | C=CCNC(=O)NC1C2C(=O)CC(c3ccc(O)cc32)C1C(=O)OCC[Si](C)(C)C (centres undefined) |  | 23 | 28 | 
8 | CCCOC(=O)C1C2C(=O)CC(c3ccccc32)C1C(=O)OCC[Si](C)(C)C (centres undefined) | 45 | 38 |  | 
9 | C[Si](C)(C)CCOC(=O)C1C2CC(=O)C(c3cc(O)ccc32)C1C(=O)OCCN1CCOCC1 (centres undefined) |  | 43 | 18 | 
10 | C=CCOC(=O)NC1C2C(=O)CC(c3ccc(O)cc32)C1C(=O)OCC[Si](C)(C)C (centres undefined) |  |  | 34 | IC50 [7]: 14 µM
11 | C[Si](C)(C)CCOC(=O)C1C2CC(=O)C(c3cc(O)ccc32)C1NC(=O)NCc1cccnc1 (centres undefined) |  | 11 | 30 | 
12 | C[Si](C)(C)CCOC(=O)C1C2CC(=O)C(c3cc(O)ccc32)C1C(=O)OCc1cccc(F)c1 (centres undefined) |  |  | 13 | IC50 [8]: 12 µM
13 | CCCOC(=O)C1C2C(=O)CC(c3ccc(OCC)cc32)C1C(=O)OCC[Si](C)(C)C (centres undefined) |  |  | 43 | IC50 [7]: 10 µM
14 | C=CCOC(=O)C1C2C(=O)CC(c3ccc(O)cc32)C1C(=O)OCC[Si](C)(C)C (centres undefined) | 21 |  |  | IC50 [3]: 21 µM; IC50 [8]: 5 µM
15 | CCCOC(=O)C1C2C(=O)CC(c3ccc(OCCc4ccccn4)cc32)C1C(=O)OCC[Si](C)(C)C (centres undefined) | 27 |  |  | IC50 [7]: 4 µM
16 | CCCOC(=O)C1C2C(=O)CC(c3ccc(OCC(=O)O)cc32)C1C(=O)OCC[Si](C)(C)C (centres undefined) |  | 13 | 3 | 
